Source: patent US7897569B2, “Use of HMGB fragments as anti-inflammatory agents” (The Feinstein Institute for Medical Research, priority 2001, dated 2011)
Ends that are not written are not given here.

Tested on: RAW 264.7 cells
Assay: TNF release from RAW 264.7 cells (L929 cytotoxicity bioassay)
Type: cell-based, murine
Settings: for TNF release by synthetic peptide fragment of B box: no polymyxin B
Experimental: Murine macrophage-like RAW 264.7 cells (American Type Culture Collection, Rockville, Md.) were cultured in RPMI 1640 medium (Life Technologies, Grand Island N.Y.) supplemented with 10% fetal bovine serum (Gemini, Catabasas, Calif.), penicillin and streptomycin (Life Technologies) and were used at 90% confluence in serum-free Opti-MEM I medium (Life Technologies, Grand Island, N.Y.). […] Polymyxin B was not used in experiments of synthetic peptide studies.
TNF release was measured by a standard murine fibroblast L929 (ATCC, American Type Culture Collection, Rockville, Md.) cytotoxicity bioassay (Bianchi et al., Journal of Experimental Medicine 183:927-936, 1996) with the minimum detectable concentration of 30 pg/ml. Recombinant mouse TNF was obtained from R&D system Inc., (Minneapolis, Minn.). Murine fibroblast L929 cells (ATCC) were cultured in DMEM (Life Technologies, Grand Island, N.Y.) supplemented with 10% fetal bovine serum (Gemini, Catabasas, Calif.), penicillin (50 units/ml) and streptomycin (50 μg/ml) (Life Technologies) in a humidified incubator with 5% CO2.
The effect of the mutants on TNF release from Murine macrophage-like RAW 264.7 cells (ATCC) was carried out as follows. RAW 264.7 cells were cultured in RPMI 1640 medium (Life Technologies, Grand Island N.Y.) supplemented with 10% fetal bovine serum (Gemini, Catabasas, Calif.), penicillin and streptomycin (Life Technologies). Polymyxin (Sigma, St. Louis, Mo.) was added at 100 units/ml to suppress the activity of any contaminating LPS. Cells were incubated with 1 μg/ml of full length (wild-type) HMGB1 and each HMGB1 mutant protein in Opti-MEM I medium for 8 hours, and conditioned supernatants (containing TNF which had been released from the cells) were collected and TNF released from the cells was measured by a standard murine fibroblast L929 (ATCC) cytotoxicity bioassay (Bianchi et al., supra) with the minimum detectable concentration of 30 pg/ml. Recombinant mouse TNF was obtained from R & D Systems Inc., (Minneapolis, Minn.) and used as control in these experiments. Data in FIG. 1 are all presented as mean+SEM unless otherwise indicated. (N=6-10).
To further examine the effect of HMGB1 B box on cytokine production, varying amounts of HMGB1 B box were evaluated for the effects on TNF, IL-1 B, and IL-6 production in murine macrophage-like RAW 264.7 cells. Conditioned media were harvested and measured for TNF, IL-1β and IL-6 levels. TNF levels were measured as described herein, and IL-1β and IL-6 levels were measured using the mouse IL-1β and IL-6 enzyme-linked immunosorbent assay (ELISA) kits (R&D System Inc., Minneapolis, Minn.) and N>5 for all experiments.
The kinetics of B box-induced TNF release was also examined. TNF release and TNF mRNA expression was measured in RAW 264.7 cells induced by B box polypeptide or GST tag polypeptide only used as a control (vector) (10 μg/ml) for 0 to 48 hours. Supernatants were analyzed for TNF protein levels by an L929 cytotoxicity assay (N=3-5) as described herein. For mRNA measurement, cells were plated in 100 mm plate and treated in Opti-MEM I medium containing B box polypeptide or the vector alone for 0, 4, 8, or 24 hours, as indicated in FIG. 2D. The vector only sample was assayed at the 4 hour time point. Cells were scraped off the plate and total RNA was isolated by RNAzol B method in accordance with the manufacturer's instructions (Tel-Test “B”, Inc., Friendswood, Tex.). TNF (287 bp) was measured by RNase protection assay (Ambion, Austin, Tex.). Equal loading and the integrity of RNA was verified by ethidium bromide staining of the RNA sample on agarose-formaldehyde gel. […] TNF mRNA expression was maximal at 4 hours and decreased at 8 and 24 hours. […] A similar study was carried out measuring TNF protein released from RAW 264.7 cells 0, 4, 8, 24, 32 or 48 hours after administration of B box or vector only (GST tag), using the L929 cytotoxicity assay described herein. […] Data are representative of three separate experiments. […]

45-64: Synthetic peptide fragment, amino acids 45-64 of the HMGB1 B box (SEQ ID NO:20) (WNNTAADDKQPYEKKAAKLK)
TNF release by synthetic peptide fragment of B box (peptide 10 μg/ml, 10 hours): did not induce TNF release

30-49: Synthetic peptide fragment, amino acids 30-49 of the HMGB1 B box (SEQ ID NO:20) (PGLSIGDVAKKLGEMWNNTA)
TNF release by synthetic peptide fragment of B box (peptide 10 μg/ml, 10 hours): did not induce TNF release

fkdpnapkrlpsafflfcse (FKDPNAPKRLPSAFFLFCSE; not fully specified; printed as fkdpnapkrlpsafflfcse) [1-20-mer]
TNF stimulating activity relative to full length B box and HMGB1 (peptide 10 μg/ml, 10 hours): less potent than either the full length synthetic B box (1-74-mer), or full length HMGB1 | TNF release by synthetic peptide fragment of B box (peptide 10 μg/ml, 10 hours): TNF-stimulating activity was retained

16-25: Synthetic peptide fragment, amino acids 16-25 of the HMGB1 B box (SEQ ID NO:20) (LFCSEYRPKI)
TNF release by synthetic peptide fragment of B box (peptide 10 μg/ml, 10 hours): did not induce TNF release

60-74: Synthetic peptide fragment, amino acids 60-74 of the HMGB1 B box (SEQ ID NO:20) (AAKLKEKYEKDIAAY)
TNF release by synthetic peptide fragment of B box (peptide 10 μg/ml, 10 hours): did not induce TNF release

B1: carboxyl-truncated HMGB1: Human HMGB1 mutant in which the carboxy terminus was deleted, SEQ ID NO:19 (protein)
chain: MGKGDPKKPTGKMSSYAFFVQTCREEHKKKHPDASVNFSEFSKKCSERWKTMSAKEKGKFEDMAKADKARYEREMKTYIPPKGETKKKFKDPNAPKRLPSAFFLFCSEYRPKIKGEHPGLSIGDVAKKLGEMWNNTAADDKQPYEKKAAKLKEKYEKDIAAYRAKGKPDAAKKGVVKAEKSK
TNF release (1 μg/ml protein, 8 hours, RAW 264.7 cells): significantly stimulated TNF release
